In PubChem BioAssay AID2060487 (Molecular Pharmacology Branch, DTP, NCI, 2025):

Tested on: 997537-175-T-J1-PDC complex spheroid viability
Assay: Anticancer human tumor 997537-175-T-J1-PDC patient-derived colon adenocarcinoma cell line growth inhibition [GQUAD]
Details: for IC50: curve of first compound; for viability, T/C: stronger effect = lower value
Outline: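 Tumor cells were grown as complex spheroids with HUVEC endothelial cells and mesenchymal stem cells as stroma. G-quadruplex stabilizers were combined with targeted agents over half-log dilutions from near the clinical Cmax, or from 10 microM.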

[1] = second compound 0.0316 µM, first compound 0.0316 µM
[2] = second compound 0.0316 µM, first compound 0.1 µM
[3] = second compound 0.0316 µM, first compound 0.316 µM
[4] = second compound 0.0316 µM, first compound 1 µM
[5] = second compound 0.0316 µM, first compound 3.16 µM
[6] = second compound 0.0316 µM, first compound 10 µM
[7] = second compound 0.1 µM, first compound 0.0316 µM
[8] = second compound 0.1 µM, first compound 0.1 µM
[9] = second compound 0.1 µM, first compound 0.316 µM
[10] = second compound 0.1 µM, first compound 1 µM
[11] = second compound 0.1 µM, first compound 3.16 µM
[12] = second compound 0.1 µM, first compound 10 µM
[13] = second compound 0.316 µM, first compound 0.0316 µM
[14] = second compound 0.316 µM, first compound 0.1 µM
[15] = second compound 0.316 µM, first compound 0.316 µM
[16] = second compound 0.316 µM, first compound 1 µM
[17] = second compound 0.316 µM, first compound 3.16 µM
[18] = second compound 0.316 µM, first compound 10 µM
[19] = second compound 1 µM, first compound 0.0316 µM
[20] = second compound 1 µM, first compound 0.1 µM
[21] = second compound 1 µM, first compound 0.316 µM
[22] = second compound 1 µM, first compound 1 µM
[23] = second compound 1 µM, first compound 3.16 µM
[24] = second compound 1 µM, first compound 10 µM
[25] = second compound 3.16 µM, first compound 0.0316 µM
[26] = second compound 3.16 µM, first compound 0.1 µM
[27] = second compound 3.16 µM, first compound 0.316 µM
[28] = second compound 3.16 µM, first compound 1 µM
[29] = second compound 3.16 µM, first compound 3.16 µM
[30] = second compound 3.16 µM, first compound 10 µM
[31] = second compound 10 µM, first compound 0.0316 µM
[32] = second compound 10 µM, first compound 0.1 µM
[33] = second compound 10 µM, first compound 0.316 µM
[34] = second compound 10 µM, first compound 1 µM
[35] = second compound 10 µM, first compound 3.16 µM
[36] = second compound 10 µM, first compound 10 µM
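Further: spheroids exposed to the agents for 7 days.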
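Wherever viability, T/C is given: 100% = DMSO vehicle control viability.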

`O=c1[nH]cc(F)c(=O)[nH]1` + CN(C)c1ccc(Nc2c3ccc(NC(=O)CCN4CCCC4)cc3nc3cc(NC(=O)CCN4CCCC4)ccc23)cc1 gave an IC50 (second compound 0.0316 µM) greater than 10 µM, an IC50 (second compound 0.1 µM) greater than 10 µM and an IC50 (second compound 0.316 µM) greater than 10 µM. For the same molecule, the IC50 (second compound 1 µM) was greater than 10 µM, the IC50 (second compound 3.16 µM) was greater than 10 µM and the IC50 (second compound 10 µM) was greater than 10 µM. For the same molecule, the viability, T/C [1] was 94.8%, the viability, T/C [2] was 90.6% and the viability, T/C [3] was 93.8%. For the same molecule, the viability, T/C [4] was 75.5%, the viability, T/C [5] was 78.7% and the viability, T/C [6] was 59.7%. It also gave a viability, T/C [7] of 92.8%, a viability, T/C [8] of 83% and a viability, T/C [9] of 87.9%. For the same molecule, the viability, T/C [10] was 66.7%, the viability, T/C [11] was 99.8% and the viability, T/C [12] was 84.4%. For the same molecule, the viability, T/C [13] was 76.3%, the viability, T/C [14] was 85.6% and the viability, T/C [15] was 76.9%. It also gave a viability, T/C [16] of 76.7%, a viability, T/C [17] of 99.3% and a viability, T/C [18] of 87.9%. The viability, T/C [19] was 76.3%, the viability, T/C [20] was 65.8% and the viability, T/C [21] was 87.9%. It also gave a viability, T/C [22] of 79.3%, a viability, T/C [23] of 81.5% and a viability, T/C [24] of 99.3%. It also gave a viability, T/C [25] of 64.2%, a viability, T/C [26] of 92.6% and a viability, T/C [27] of 86.3%. For the same molecule, the viability, T/C [28] was 90.7%, the viability, T/C [29] was 102% and the viability, T/C [30] was 87.4%. It also gave a viability, T/C [31] of 73.3%, a viability, T/C [32] of 79% and a viability, T/C [33] of 85.8%. The viability, T/C [34] was 80%, the viability, T/C [35] was 97% and the viability, T/C [36] was 63.5%.
`CC1COCCN1c1cc(C2(O)CC3CCC(C2)O3)c2cnn(-c3ccn[nH]3)c2n1` (centres undefined) + Cc1cnc(CNC(=O)c2c(=O)c3ccc(N4CCCN(C)CC4)nc3n3c2sc2ccccc23)cn1 showed an IC50 (second compound 0.0316 µM) of 0.0848 µM, an IC50 (second compound 0.1 µM) of less than 0.0316 µM and an IC50 (second compound 0.316 µM) of 0.081 µM. For the same molecule, the IC50 (second compound 1 µM) was less than 0.0316 µM, the IC50 (second compound 3.16 µM) was greater than 10 µM and the IC50 (second compound 10 µM) was 3.61 µM. It also gave a viability, T/C [1] of 64%, a viability, T/C [2] of 52.9% and a viability, T/C [3] of 33.3%. For the same molecule, the viability, T/C [4] was 38.8%, the viability, T/C [5] was 42.9% and the viability, T/C [6] was 44.8%. It also gave a viability, T/C [7] of 51.1%, a viability, T/C [8] of 49% and a viability, T/C [9] of 37.5%. For the same molecule, the viability, T/C [10] was 27.6%, the viability, T/C [11] was 41.2% and the viability, T/C [12] was 58.5%. For the same molecule, the viability, T/C [13] was 53%, the viability, T/C [14] was 52.3% and the viability, T/C [15] was 35.7%. For the same molecule, the viability, T/C [16] was 57.1%, the viability, T/C [17] was 43% and the viability, T/C [18] was 43.4%. For the same molecule, the viability, T/C [19] was 47.9%, the viability, T/C [20] was 42.6% and the viability, T/C [21] was 38.4%. It also gave a viability, T/C [22] of 42.9%, a viability, T/C [23] of 62.7% and a viability, T/C [24] of 28.6%. The viability, T/C [25] was 48.6%, the viability, T/C [26] was 56.9% and the viability, T/C [27] was 62.7%. For the same molecule, the viability, T/C [28] was 41.8%, the viability, T/C [29] was 54.2% and the viability, T/C [30] was 53%. It also gave a viability, T/C [31] of 59.5%, a viability, T/C [32] of 63.1% and a viability, T/C [33] of 55.8%. For the same molecule, the viability, T/C [34] was 53.9%, the viability, T/C [35] was 53.1% and the viability, T/C [36] was 42.4%.
